# US20240390464A1, “Treatment of Adults With Overweight or Obesity With or Without Weight-Related Comorbidities” (Carmot Therapeutics Inc., priority 2023, published 2024)
# Read-outs that look alike come from different tables or passages of the source. Numbered stars: 1 amine (or outer) side, 2 acyl side, 3 side chain; on linkers, the order of the positions; unused ones are H or OH. Square brackets hold non-standard residues; d marks the D form. Side chains are listed from the residue outwards. Peptide text beside a SMILES is read from it. * marks the point of attachment. Isobutyryl(2-(3-CN-5-F-Ph)) = CC(C)(C(=O)*)c1cc(F)cc(C#N)c1; C20 diacid = O=C(O)CCCCCCCCCCCCCCCCCCC(=O)*; γGlu = O=C(O)[C@H](CCC(=O)[*:2])N[*:1]; AEEA = NCCOCCOCC(=O)O; Aib = CC(C)(N)C(=O)O; βAla = NCCC(=O)O
# Assays:
# [1] = chronic toxicology, repeat dosing 39 weeks; type: in vivo; details: monkeys
# Description: Thus, CT-388 can be a potent drug that induces significant weight loss and helps achieve optimal glycemic control, with acceptable tolerability, in overweight or obese adults with or without T2DM or other weight-related comorbidities. CT-388 can potentially be used as a non-invasive alternative to bariatric surgery for weight management.
# [2] = Phase 1 SAD Cohorts 1-5: pharmacokinetics; details: human, in vivo; for Vd/F: read-out: Vz/F
# Method: The secondary objectives are: • To evaluate the pharmacokinetics of single-ascending doses of CT-388 in otherwise healthy overweight and obese adult participants; and • To evaluate the pharmacodynamic (PD) effect of a single dose of CT-388 on body weight and glucose homeostasis in both the fasted state and in the setting of a mixed meal tolerance test (MMTT) challenge in otherwise healthy overweight and obese adult participants.
# • Cohort 1: One dose containing 0.5 mg of CT-388 or matched placebo administered subcutaneously in the abdomen • Cohort 2: One dose containing 2.0 mg of CT-388 or matched placebo administered subcutaneously in the abdomen • Cohort 3: One dose containing 5.0 mg of CT-388 or matched placebo administered subcutaneously in the abdomen • Cohort 4: One dose containing 7.5 mg of CT-388 or matched placebo administered subcutaneously in the abdomen • Cohort 5: One dose containing 6.0 mg of CT-388 or matched placebo administered subcutaneously in the abdomen
# Time-concentration profiles following a single dose SC administration of CT-388 to participants in Cohort 1 (0.5 mg), Cohort 2 (2 mg), Cohort 3 (5 mg), Cohort 4 (7.5 mg) and Cohort 5 (6 mg) are shown in Table 8 below.
# [3] = Phase 1 MD Cohorts 11 and 12: pharmacokinetics; details: human, in vivo, SC QW
# Description: The secondary objectives of this study are: • To evaluate the pharmacokinetics of CT-388 across 12 consecutive weekly doses for Cohorts 11 and 14 (and additionally, up to 24 weeks for Cohorts 12 and 13); and • To evaluate the PD effect of CT-388 across 12 consecutive weekly doses for Cohorts 11 and 14 (and additionally up to 24 weeks for Cohorts 12 and 13) on body weight and glucose homeostasis in both the fasted state and in the setting of an OGTT in participants with or without T2DM. […] Cohorts 11 and 12 included participants who were obese without T2DM and cohort 13 included patients who were obese with T2DM. Endpoints of this study were safety, including TEAEs, labs, vitals and ECGs; PK, including CT-388 PK concentrations and parameters; and key PD endpoints, including week 12 ([…]) and week 24 ([…]): • a. body weight: % change; absolute change; • b. change in HbA1c, fasting glucose, fasting insulin, HOMA-IR; and • c. waist and hip circumference.
# [4] = Cohort 1, single SC dose 0.5 mg, mean ± standard deviation
# [5] = Cohort 2, single SC dose 2 mg, mean ± standard deviation
# [6] = Cohort 3, single SC dose 5 mg, mean ± standard deviation
# [7] = Cohort 4, single SC dose 7.5 mg, mean ± standard deviation
# [8] = Cohort 5, single SC dose 6 mg, mean ± standard deviation
compound,measurement,setting,value
CC[C@H](C)[C@H](NC(=O)[C@H](CC(C)C)NC(=O)[C@H](Cc1c[nH]c2ccccc12)NC(=O)[C@H](CCC(N)=O)NC(=O)[C@@H](NC(=O)[C@H](Cc1ccccc1)NC(=O)[C@H](C)NC(=O)[C@H](CCCCNC(=O)COCCOCCNC(=O)COCCOCCNC(=O)CC[C@H](NC(=O)CCCCCCCCCCCCCCCCCCC(=O)O)C(=O)O)NC(=O)[C@H](CCC(N)=O)NC(=O)[C@H](C)NC(=O)[C@@H](NC(=O)[C@H](CCCCN)NC(=O)[C@H](CC(=O)O)NC(=O)[C@H](CC(C)C)NC(=O)C(C)(C)NC(=O)[C@@H](NC(=O)[C@H](CO)NC(=O)[C@H](Cc1ccc(O)cc1)NC(=O)[C@H](CC(=O)O)NC(=O)[C@H](CO)NC(=O)[C@@H](NC(=O)[C@H](Cc1ccccc1)NC(=O)[C@@H](NC(=O)CNC(=O)[C@H](CCC(=O)O)NC(=O)CCNC(=O)C(C)(C)c1cc(F)cc(C#N)c1)[C@@H](C)O)[C@@H](C)O)[C@@H](C)CC)[C@@H](C)CC)C(C)C)C(=O)N[C@@H](C)C(=O)NCC(=O)NCC(=O)N1CCC[C@H]1C(=O)N[C@@H](CO)C(=O)N[C@@H](CO)C(=O)NCC(=O)N[C@@H](C)C(=O)N1CCC[C@H]1C(=O)N1CCC[C@H]1C(=O)N1CCC[C@H]1C(=O)N[C@@H](CO)C(N)=O [CT-388] ({Isobutyryl(2-(3-CN-5-F-Ph))-βAla}-EGTFTSDYSI[Aib]LDKIAQK([AEEA-AEEA-γGlu-C20 diacid])AFVQWLIAGGPSSGAPPPS-NH2),tolerated dosing exceeds the pharmacologically active dose,[1]; 39-weeks,100 fold
same,"tolerability, chronic toxicology",[1]; repeat dosing over 39-weeks,well tolerated
same,AUC(0-inf),[2]; [4],12900 ± 1090 ng·h/mL
same,CL/F,[2]; [4],0.65 mL/min
same,Cmax,[2]; [4],52.4 ± 10 ng/mL
same,MRT last,[2]; [4],128 ± 8.2 h
same,Vd/F,[2]; [4],5.8 ± 0.7 L
same,half-life,"[2]; Cohort 1, single SC dose 0.5 mg, range of minimum to maximum, read-out: t1/2 range",91.9 to 171 h
same,AUC(0-inf),[2]; [5],47400 ± 10600 ng·h/mL
same,CL/F,[2]; [5],0.733 mL/min
same,Cmax,[2]; [5],216 ± 51.4 ng/mL
same,MRT last,[2]; [5],122 ± 5.6 h
same,Vd/F,[2]; [5],7.7 ± 1.8 L
same,half-life,"[2]; Cohort 2, single SC dose 2 mg, range of minimum to maximum, read-out: t1/2 range",108 to 142 h
same,CL/F,"[2]; Cohort 3, single SC dose 5 mg, mean",0.64 mL/min
same,AUC(0-inf),[2]; [6],140000 ± 41700 ng·h/mL
same,Cmax,[2]; [6],831 ± 263 ng/mL
same,MRT last,[2]; [6],114 ± 2.3 h
same,Vd/F,[2]; [6],6.8 ± 2.1 L
same,half-life,"[2]; Cohort 3, single SC dose 5 mg, range of minimum to maximum, read-out: t1/2 range",108 to 146 h
same,CL/F,"[2]; Cohort 4, single SC dose 7.5 mg, mean",0.547 mL/min
same,AUC(0-inf),[2]; [7],235000 ± 39000 ng·h/mL
same,Cmax,[2]; [7],1160 ± 110 ng/mL
same,MRT last,[2]; [7],119 ± 5.3 h
same,Vd/F,[2]; [7],6.6 ± 1.3 L
same,half-life,"[2]; Cohort 4, single SC dose 7.5 mg, range of minimum to maximum, read-out: t1/2 range",117 to 151 h
same,AUC(0-inf),[2]; [8],100000 ± 15000 ng·h/mL
same,CL/F,[2]; [8],0.99 mL/min
same,Cmax,[2]; [8],552 ± 80.1 ng/mL
same,MRT last,[2]; [8],122 ± 9.6 h
same,Vd/F,[2]; [8],11 ± 1.2 L
same,half-life,"[2]; Cohort 5, single SC dose 6 mg, range of minimum to maximum, read-out: t1/2 range",101 to 141 h
same,Tmax,"[2]; SAD Cohorts 1-5, single SC dose, all except two individual cases",> 24 h
same,half-life,"[2]; SAD Cohorts 1-5, single SC dose, read-out: t1/2 (median) (converted)",~120 h
same,half-life,[3],~150 h
